Source: PubChem BioAssay AID2305 (GlaxoSmithKline (GSK), 2010)

Test system: P. falciparum 3D7 growth, pLDH absorbance
Experiment: blood-stage malaria parasite growth potency – strain 3D7, dose response (AID 2305)

| Compound | IC50 [nM] |
| --- | --- |
| CN1CCN(Cc2ccc(-c3cc4c(Nc5ccc(OCc6cccc(F)c6)c(Cl)c5)ncnc4s3)[nH]2)CC1 | 770 |
| Cc1[nH]c(C)c(-c2ccc(-c3ccc(OC(F)(F)F)cc3)cc2)c(=O)c1Br | 40 |
| CCNc1cc(C(=O)N[C@@H](Cc2ccccc2)[C@H](O)CNCCc2cc(OC)cc(OC)c2)cc(N2CCCCS2(=O)=O)c1 | 1140 |
| CCc1cc(Br)c2c(c1)C(NCCCNc1cc(=O)c3ccccc3[nH]1)CCN2 (configuration not stated) | 850 |
| CC1CN=C(Nc2ncc(Cl)cc2Cl)N1 (configuration not stated) | 240 |
| COc1ccc2nccc([C@@H](O)CN3CCC(NC(=O)c4ccc(C5(C(F)(F)F)N=N5)cc4)CC3)c2c1 | 930 |
| c1ccc(CNCCn2c(-c3ccc4c(c3)CCO4)nc3c(N4CCCC4)cccc32)cc1 | 1130 |
| O=C(/C=C/c1ccc(Cl)c(Cl)c1)N1CCC(CCN2CCC(c3c[nH]c4ccncc34)CC2)CC1 | 1140 |
| NC1=NC(c2ccccc2)(c2ccccc2)C(=O)N1CCOc1ccccc1 | 840 |
| Cc1ccc(C2(CN3CCC(NC(=O)c4[nH]ncc4Cl)CC3)CCCCC2)cc1 | 320 |
| COc1cc2c(Nc3cccc(NC(=O)c4ccccc4)c3)ncnc2cc1OCCCN1CCOCC1 | 150 |
| COc1cccc2cc(C(=O)N[C@@H](CC(C)C)C(=O)N[C@H](/C=N/N3CCOC3=O)CC(C)C)oc12 | 740 |
| COc1ccc2nc(-c3cc(-c4ccc(NC(=O)CN5CCOCC5)cc4)cnc3N)[nH]c2c1 | 620 |
| Cc1cccc(C)c1NC1=NC(=S)N(c2cccc(Cl)c2)C12CCC(C(C)(C)C)CC2 (configuration not stated) | 760 |
| C[C@H]1[C@H](c2cccc(Cl)c2)OCC(C)(C)N1C(=O)CCN1CCCCC1 | 920 |
| O=C(Nc1ccc(F)cc1)NC1CCN(CCCCCNC(=O)[C@@H]2C[C@H]2c2ccc(Cl)c(Cl)c2)CC1 | 990 |
| Cc1ccc(Nc2nc3cc(Nc4ccnc(Nc5ccc(CS(C)(=O)=O)cc5)n4)ccc3o2)cc1 | 760 |
| O=C(N[C@H]1CCN(Cc2ccc(OCCN3CCNCC3)c(Cl)c2)C1)c1ccc(Cl)c(Cl)c1 | 1060 |
| Cc1cc(C)nc(-n2[nH]c(C)c(Cc3ccc(C(C)(C)C)cc3)c2=O)n1 | 1010 |
| O=C(/C=C/c1ccc(Cl)c(Cl)c1)NCCCCCN1CCCC(C(=O)Nc2ccc(Cl)cc2)C1 (configuration not stated) | 850 |
| CN(c1ccc2c(c1)nc(NCc1ccccc1)n2C)c1ccnc(Nc2ccc(CS(C)(=O)=O)cc2)n1 | 840 |
| CCCCCSc1cc(O)c(C(CNC)C(C)C)cc1OC (configuration not stated) | 160 |
| CC(C)(C)n1nnnc1C(c1cccnc1)N(Cc1ccccc1)Cc1ccc(Cl)cc1 (configuration not stated) | 740 |
| Oc1c(Cl)cc(-c2ccccc2)cc1CNC1CCCCC1 | 750 |
| CC(C)COc1ccc(Cl)cc1Cc1nc(-c2nc3ccc(CN4CCCC4)cc3[nH]2)co1 | 730 |

| Compound | IC50 [nM] |
| --- | --- |
| COC(=O)c1cc(C(=O)CN(Cc2ccccc2)C(C)C)ccc1O | 180 |
| O=C(NCCCCCN1CCC(c2c[nH]c3ccccc23)CC1)Nc1cccc(Cl)c1 | 1020 |
| O=C(Nc1ccc(CCN2CCC(c3nc(COCC(F)(F)F)c(-c4ccccc4)o3)CC2)cc1)c1ccc(F)cc1 | 1970 |
| O=C(/C=C/c1ccc(Cl)c(Cl)c1)NCCCCCN1CCCN(C(=O)Nc2cccc(F)c2)CC1 | 760 |
| O=C(CNCC1CCCCC1)Nc1cc(C(F)(F)F)ccc1Cl | 980 |
| CCCN(CCC)CC(O)COc1ccccc1C(=O)Nc1ccccc1 (configuration not stated) | 800 |
| CNc1nc(NN=Cc2cc3c(cc2[N+](=O)[O-])OCO3)nc(Nc2cccc(C(F)(F)F)c2)n1 | 770 |
| Cc1cc(-c2nc3ccc(C(=O)NCc4ccccc4)cc3n2C2CCN(C(=O)c3ccc(-c4ccccc4)cc3)CC2)ccn1 | 900 |
| O=C(Nc1ccc(Br)cc1)N(CCN1CCOCC1)CC(O)COCc1ccc(F)cc1 (configuration not stated) | 1040 |
| NC(N)=NN=Cc1c2ccccc2c(Cl)c2c(Cl)cccc12 | 880 |
| COc1ccccc1N1CCN(c2cccc3c2nc(-c2cncc(C#N)c2)n3CCNCc2ccccc2)CC1 | 710 |
| COc1ccc(-c2ccc(NC(=O)c3cccc(Cl)c3)cc2)cc1CN(C)CCN(C)C | 780 |
| Cc1cc(CN2CCC(N3CC(c4ccccc4)(c4ccccc4)OC3=O)C2)ccc1O (configuration not stated) | 780 |
| CC(=O)c1ccc(N2CCN(CCC3(c4ccc(Cl)c(Cl)c4)COCN(C(=O)c4ccccc4)C3)CC2)cc1 (configuration not stated) | 920 |
| O=C(NCC1CCN(Cc2cccc(C(F)(F)F)c2)C1)c1cc(-c2cccc(Cl)c2)cs1 (configuration not stated) | 800 |
| COc1ccc2nc3cc(Cl)ccc3c(NCCCN3CCNCC3)c2c1 | 230 |
| CCOc1ccc(Br)cc1/C=C/C(=O)Nc1ccc2c(c1)CCCN(C)C2 | 1050 |
| O=S1C(Cl)=C(c2ccc(Cl)cc2)c2ccc(Cl)cc21 (configuration not stated) | 990 |
| CCCNC[C@@H](O)[C@H](Cc1ccccc1)NC(=O)c1cc(NCC)cc(N2CCCCS2(=O)=O)c1 | 220 |
| COc1ccccc1C1CCN(C2CCC(NC(=O)/C=C/c3cc(F)cc(F)c3)CC2)CC1 (configuration not stated) | 1110 |
| COc1ccc2nc(C)cc(Nc3ccc(Oc4ccc(Cl)c5ccccc45)c(Cl)c3)c2c1 | 730 |
| OC1CCN(c2cc(-c3ccccn3)nc(-c3ccccn3)n2)CC1 | 1050 |
| CCOc1ccc(C(=O)Nc2ccc(-c3nc4ccccc4[nH]3)cc2)cc1[N+](=O)[O-] | 590 |
| Clc1ccc(-c2ccc(CNCCCN3CCCC3)cc2)cc1 | 1060 |
| C(=N\Nc1nccc2sc(-c3ccccc3)cc12)/c1cccnc1 | 820 |

| Compound | IC50 [nM] |
| --- | --- |
| c1ccc2[nH]c(-c3ccc(-c4ccc(CN5CCN(CCN6CCOCC6)CC5)cc4)cc3)nc2c1 | 160 |
| CCCCCC(C)NC[C@@H](O)[C@H](Cc1ccccc1)NC(=O)c1cc(NCC)cc(N2CCCCS2(=O)=O)c1 (some centres not stated) | 400 |
| COc1cc(C=NNc2nc(Nc3ccccc3)nc(Nc3ccccc3)n2)ccc1OCc1ccccc1[N+](=O)[O-] | 810 |
| Nc1cccc(CNCc2cccc(-c3ccc(-c4nc5ccc(C(F)(F)F)cc5[nH]4)cc3)c2)c1 | 360 |
| COc1ccc(-c2ccc(NC(=O)c3cccc(C#N)c3)cc2)cc1CN1CCCC(C(N)=O)C1 (configuration not stated) | 860 |
| CCOC(=O)c1ccc(CC(C)NCC(O)c2cccc(C(F)(F)F)c2)cc1 (configuration not stated) | 220 |
| COc1ccc2c(NN=Cc3ccncc3)cc(C)nc2c1 | 810 |
| CCC(CC)CN1C(=O)C(c2ccccc2)(c2ccccc2)N=C1N | 970 |
| Fc1ccc(Nc2ccnc3cc(-c4ccc(CN5CCOCC5)o4)ccc23)c(Cl)c1 | 760 |
| O=S(=O)(NCCN1CCCC1)c1cccc(-c2ccc(CNCc3ccccc3)cc2)c1 | 1000 |
| Cc1ccc(-c2cccc3c(NC(=O)Nc4ccc5nccc(N6CCN(C)CC6)c5c4)cccc23)cn1 | 350 |
| COc1ccc(Nc2nc(NN=Cc3ccc(O)cc3)nc(Nc3ccc([N+](=O)[O-])cc3)n2)cc1 | 1120 |
| O=C(Nc1ccc(Cl)c(Cl)c1)N1CCC(CNCc2cccc([N+](=O)[O-])c2)CC1 | 980 |
| CCOC(=O)c1cc2c(CCN3C(=O)c4ccccc4C3=O)cn(C)c2cc1-c1ccncc1 | 580 |
| O=C(Nc1ccc(Br)cc1)N(CCN1CCOCC1)CC(O)COc1ccc(Cl)c(F)c1 (configuration not stated) | 1040 |
| CC(=O)NC(c1cccs1)c1cc(Cl)c2cccnc2c1O (configuration not stated) | 320 |
| CC(C)Nc1cc(C(=O)N[C@@H](Cc2ccccc2)[C@H](O)CNC(C)(C)c2cccc(C(F)(F)F)c2)cc(N2CCCCS2(=O)=O)c1 | 80 |
| CC(C)(C)[C@@H](Nc1ccc(C#N)c2ccccc12)C(=O)NC1(Cc2ccc(O)cc2)CCCC1 | 1440 |
| CCN(CC)CCOc1ccc(C(O)(C#CC(O)(c2ccc(OCCN(CC)CC)cc2)c2ccc([N+](=O)[O-])cc2)c2ccc([N+](=O)[O-])cc2)cc1 (configuration not stated) | 1730 |
| Cc1ccc2nc(C)cc(NN=Cc3ccccc3F)c2c1 | 170 |
| CCC(C)C(COC(=O)c1cc(OC)c(OC)c(OC)c1)N(C)CCN(C)C(COC(=O)c1cc(OC)c(OC)c(OC)c1)C(C)CC (configuration not stated) | 950 |
| CCCN(CCC)CCCCC(C)Nc1c2ccc(Cl)cc2nc2ccc(OC)cc12 (configuration not stated) | 140 |
| O=C(CSc1nccn1C1CCCC1)Nc1cc(C(F)(F)F)ccc1Cl | 380 |
| N#Cc1ccc(OCCN(Cc2ccccc2C(F)(F)F)c2ccc(C#N)c(C(F)(F)F)c2)cc1 | 280 |
| Nc1cccc(CNCc2ccc(-c3ccc(-c4nc5ccc(F)cc5[nH]4)s3)cc2)c1 | 990 |

| Compound | IC50 [nM] |
| --- | --- |
| O=C(Cc1ccc(NC(=O)c2ccc(O)c(-c3ccc(Cl)c(Cl)c3)c2)cc1)NCCN1CCOCC1 | 810 |
| CN1CCN(CCc2ccc(N=Cc3c(=O)[nH]c4ccc5[nH]cccc5c34)cc2)CC1 | 330 |
| NC(=O)c1ccccc1OCC(=O)Nc1ccc(-c2cccc(-c3nc4ccc(C(F)(F)F)cc4[nH]3)c2)cc1 | 980 |
| O=S(=O)(c1ccc(OCc2ccc(Cl)cc2)cc1)c1cc2c(cc1OCc1ccccc1)CCN(C1CCC1)CC2 | 1020 |
| O=C(/C=C/c1ccc(C(F)(F)F)cc1)NCCCCCN1CCN(C(=O)Nc2ccc(Cl)cc2)CC1 | 1010 |
| Cc1cc(NCCCCCCN)nc(Nc2ccc(Cl)cc2)n1 | 450 |
| CC(C)c1ccc(C=CC(=O)NC2CCC(CN3CCC(c4c[nH]c5ccccc45)CC3)CC2)cc1 (configuration not stated) | 810 |
| CCCc1ccc(C(=O)N2[C@@H](c3nccs3)[C@@H](C(N)=O)C[C@@]2(CC(C)C)C(=O)O)cc1 | 160 |
| Cc1ccc(CC(C)NCC(O)c2cccc(C(F)(F)F)c2)c(C)c1 (configuration not stated) | 700 |
| CC(NC(C)c1cccc(Cl)c1)C(=O)Nc1cc(C(F)(F)F)ccc1N1CCOCC1 (configuration not stated) | 1090 |
| CCCN1CCN(CC(O)CNC(=O)Nc2ccc(Cl)cc2)CC1 (configuration not stated) | 100 |
| Fc1ccccc1CNc1ncc(-c2ccsc2)c(-c2nccs2)n1 | 50 |
| COc1ccc2nccc(N(C)CC3(O)CCN(CC(O)c4ccc5c(c4)NC(=O)CS5)CC3)c2n1 (configuration not stated) | 590 |
| CC(=O)c1sc(NC(=O)Nc2ccc(C)cc2C)nc1C | 910 |
| CCOC(=O)c1[nH]c(-c2ccc(-c3ccccc3)cc2)nc1N | 420 |
| Oc1ccc(CCCNc2nc(NCc3ccccc3-c3ccccc3)nc(NC3CCNCC3)n2)cc1 | 860 |
| O=c1cc(NCCCNCc2[nH]c3cc(Cl)ccc3c2Cl)[nH]c2ccccc12 | 910 |
| COc1ccc(-c2nc(NC(=O)COc3ccc(C(C)=O)cc3)sc2C)cc1 | 710 |
| CC[C@H](C)CNC(=O)c1cncc(-c2cccc(CN3CCC(N4CCCC4)CC3)c2)c1 | 1170 |
| O=C(NCC1CCC(C(=O)O)CC1)c1ccc(/C=C/C(=O)N2CCc3ccccc3C2c2ccc3c(c2)OCO3)cc1 (configuration not stated) | 890 |
| CCCCN(CCCC)C(=O)CC(O)c1cc2c(Cl)cc(Cl)cc2c2cc(C(F)(F)F)ccc12 (configuration not stated) | 1210 |
| CC(C)CN1C(=O)c2ccc(C(=O)Nc3nccs3)cc2C1=O | 970 |
